According to patent US12478627B2, “Irsogladine for the treatment of eosinophilic gastrointestinal diseases” (EPITHELION SCIENCE BIOTECH, S.L., priority 2019, dated 2025):
Entries after “also recorded” stand apart in the source; their conditions may differ. Structures can show the parent of a compound that is named as a salt.

Experiments:
eosinophilic jejunitis = test: Example 3: Irsogladine maleate in patient two with mild eosinophilic jejunitis; assay type: in vivo, human
EoE and EoGIDs = conditions: cited from earlier work
[1] = test system: Eosinophilic Esophagitis (EoE); test: Example 2: oral Irsogladine maleate in patient three with eosinophilic esophagitis; assay type: in vivo, human
Description: […] […] […] Pain tended to increase while eating.
Endoscopic procedures were performed. Colonoscopy of the entire colon and 20 cm of the distal ileum were informed as normal and staged biopsies were taken. […] Biopsies were taken in all upper gastrointestinal tract organs examined. Both, clinical symptoms and endoscopic findings are in accordance with the clinical and endoscopic criteria of EoE (Lucendo A J, Molina-Infante J, Arias Á, et al. Guidelines on eosinophilic esophagitis: evidence-based statements and recommendations for diagnosis and management in children and adults. United European Gastroenterol J. 2017; 5 (3):335-358; Dellon E S, Liacouras C A, Molina-Infante J, et al. Updated International Consensus Diagnostic Criteria for Eosinophilic Esophagitis: Proceedings of the AGREE Conference. Gastroenterology. 2018; 155 (4):1022-1033.e10.; Lipowska AM, Kavitt R T. Current Diagnostic and Treatment Strategies for Eosinophilic Esophagitis. Gastroenterol Hepatol (N Y) 2017; 13 (9):527-535; Hirano I, Moy N, Heckman M G, Thomas C S, Gonsalves N, Achem S R. Endoscopic assessment of the oesophageal features of eosinophilic oesophagitis: validation of a novel classification and grading system. Gut. 2013; 62 (4):489-495; Muir A B, Merves J, Liacouras C A. Role of Endoscopy in Diagnosis and Management of Pediatric Eosinophilic Esophagitis. Gastrointest Endosc Clin N Am. 2016; 26 (1):187-200).
These biopsies meet the diagnostic criteria of Eosinophilic Esophagitis (Lee S, de Boer W B, Naran A, et al. More than just counting eosinophils: proximal oesophageal involvement and subepithelial sclerosis are major diagnostic criteria for eosinophilic oesophagitis. J Clin Pathol. 2010; 63 (7):644-647; Collins M H, Capocelli K, Yang G Y. Eosinophilic Gastrointestinal Disorders Pathology. Front Med (Lausanne). 2018; 4: 261).
Upon confirming the diagnosis with Eosinophilic Esophagitis, JPV was treated with 4 mg of oral Irsogladine maleate twice a day for 8 weeks, without following any other treatment such as food elimination or pharmaceutical treatments (i.e. corticosteroids or monoclonal antibodies).
Due to the therapeutic efficacy shown by Irsogladine administration, it was decided to prolong JPV treatment for an additional 24 weeks (in total 32 weeks), at the same dose, with regular telephone and presential checking of symptoms and general health. […] Esophageal biopsies were taken showing no excess of eosinophil infiltrate (<10 cells/hpf) (FIGS. 12 and 13). There was neither peripheral blood eosinophilia (315 cells mm^3) nor anemia or any biological signs of inflammation.

[2] = test system: Eosinophilic Esophagitis (EoE); test: Example 1: oral Irsogladine maleate in patient one with active eosinophilic esophagitis; assay type: in vivo, human; conditions: 12 weeks
Text: […] […] […] A esophageal pH-metric study, performed without PPI treatment, was informed as normal. […] Without other type of examination, JCC was empirically treated in three occasions with Budesonide.
When seen, JCC was symptomatic, with difficulties to swallow food. Because of the symptoms and clinical history, Eosinophilic Esophagitis was suspected (Lucendo A J, et al. supra; Dellon E S, et al. supra; Lipowska A M, Kavitt R T. Current Diagnostic and Treatment Strategies for Eosinophilic Esophagitis. Gastroenterol Hepatol (N Y) 2017; 13(9):527-535). […] They had neither blood nor urine biological tests abnormalities. […] An Enteral Magnetic Resonance Imaging was informed as normal, without inflammatory features, increased wall thickness or strictures in the gastro-intestinal tract.
Simultaneously, biopsies were taken in all organs examined. […] Biopsies met the histological criteria of active eosinophil esophagitis (Lee S, de Boer W B, Naran A, et al. More than just counting eosinophils: proximal oesophageal involvement and subepithelial sclerosis are major diagnostic criteria for eosinophilic oesophagitis. J Clin Pathol. 2010; 63 (7):644-647; Collins M H, Capocelli K, Yang G Y. Eosinophilic Gastrointestinal Disorders Pathology. Front Med (Lausanne). 2018; 4:261). Gastric, duodenal and upper jejunal biopsies were reported as normal.
Consequently, JJC was diagnosed with active eosinophlic esophagitis. At this point in time, JJC was treated with oral Irsogladine maleate tablets, 2 mg twice a day during 12 weeks, exempting JJC from other therapies.
Also, at end of the Irsogladine treatment, endoscopic examination was repeated using Narrow Band Imaging (NBI). This technique is able to detect minimal changes in mucosa surface.

[3] = patients with EoE or EoGIDs, literature reports
[4] = 4 mg twice a day, 8 weeks, listed as Irsogladine Maleate
[5] = 2 mg twice a day, listed as Irsogladine Maleate

CCN(CCCCOC(=O)c1ccc(OC)c(OC)c1)C(C)Cc1ccc(OC)cc1.Cl (stereo not drawn) [Mebeverine Chlorhydrate]
response of symptoms to earlier symptomatic treatment (eosinophilic jejunitis; Omeprazole 20 mg twice a day and Mebeverine Chlorhydrate 200 mg twice daily, long periods, before Irsogladine): no improvement

Benralizumab: mAb against IL-5 receptor
clinical symptoms (EoE and EoGIDs; [3]): did not correspond with clinical improvement
tissue eosinophil infiltrate (EoE and EoGIDs; [3]): significant reduction

Infliximab: Anti-TNFα mAb
clinical symptoms (EoE and EoGIDs; [3]): have not shown efficacy
tissue eosinophil infiltrate (EoE and EoGIDs; [3]): have not shown efficacy

Nc1nc(N)nc(-c2cc(Cl)ccc2Cl)n1 [Irsogladine maleate]
symptoms (eosinophilic jejunitis; 4 mg twice a day, after 2 weeks): symptoms improved
symptoms (eosinophilic jejunitis; 4 mg twice a day, after 4 weeks): fully asymptomatic
symptoms (eosinophilic jejunitis; after 6 months maintenance treatment, 4 mg once a day): remained asymptomatic
gastrointestinal upper endoscopy (eosinophilic jejunitis; after 6 months treatment): considered normal; also recorded: normal looking upper jejunal mucosa
histology of upper jejunal mucosa biopsy (eosinophilic jejunitis; after six months of daily treatment): normal looking villi and no increase of eosinophilic infiltration
endoscopic aspect of esophageal mucosa [1, 4]: Esophageal linear furrows, white plaques and a tendency to trachealization have disappeared
histologic features of esophageal biopsy (eosinophil infiltration, microabscesses, intercellular spaces) [1, 4]: absence of eosinophil infiltration
histological aspect of esophageal mucosa ([1]; 32 weeks of treatment): strictly normal
endoscopic aspect of esophageal mucosa ([1]; 32 weeks of treatment, listed as Irsogladine Maleate): normal
endoscopic examination of esophageal mucosa (Narrow Band Imaging) [2, 5]: Mucosa white plaques and circular trachealization disappeared
histologic features of esophageal biopsy (eosinophil infiltration, intercellular spaces) [2, 5]: Eosinophil infiltration has clearly reduced, and intercellular spaces are back to normal

Cn1cnc([N+](=O)[O-])c1Sc1ncnc2nc[nH]c12 [Azathioprine]
side effects (EoE and EoGIDs; [3]): not free of side effects
efficacy (EoE and EoGIDs; two reports, small number of cases of EoE and EoGE): has shown efficacy

Omalizumab: anti-IgE, targets a highly affinity receptor binding site of human IgE
induction or maintenance of disease remission (EoE and EoGIDs; eosinophilic esophagitis, literature reports): failed to control or induce remission
clinical symptoms (EoE and EoGIDs; [3]): variable effects
tissue eosinophil infiltrate (EoE and EoGIDs; [3]): non-significant decrease

Nc1nc(N)nc(-c2cc(Cl)ccc2Cl)n1 [Irsogladine, 6-(2,5-Dichlorophenyl)-1,3,5-triazine-2,4-diamine]
eosinophil counts in esophageal biopsy ([1]; 4 mg oral twice a day, 8 weeks, before treatment more than 50 per HPF): less than 15 per HPF
disease remission ([1]; 4 mg twice a day, 8 weeks): therapeutically effective to induce remission
endoscopic aspect of esophageal mucosa ([1]; 4 mg twice a day, 8 weeks): endoscopically normal
histologic features of esophageal biopsy (eosinophil infiltration, microabscesses, intercellular spaces) ([1]; 4 mg twice a day, 8 weeks): negligible presence of eosinophil infiltration; also recorded: no eosinophilic microabscesses and absence of intercellular dilated spaces
side effects ([1]; 4 mg twice a day, 8 weeks): No side effects
symptoms ([1]; 4 mg twice a day, 8 weeks): completely disappeared
eosinophil infiltrate in esophageal biopsies ([1]; 4 mg twice a day, additional 24 weeks (in total 32 weeks)): < 10 cells/hpf
endoscopic aspect of esophageal mucosa ([1]; 32 weeks of treatment): normal looking mucosa
side effects of long-term administration ([1]; 32 weeks of treatment): No side effects
disease remission ([2]; 2 mg twice a day): therapeutically effective in inducing disease remission
endoscopic examination of esophageal mucosa (Narrow Band Imaging) ([2]; 2 mg twice a day): esophageal mucosal furrows, white plaques and trachealization lesions had disappeared
histologic features of esophageal biopsy (eosinophil infiltration, intercellular spaces) ([2]; 2 mg twice a day): no dilation of intercellular spaces
side effects ([2]; 2 mg twice a day): No side effects
symptoms ([2]; 2 mg twice a day): Symptoms had disappeared
eosinophil counts in biopsies of the esophageal mucosa ([2]; oral tablets 2 mg twice a day, before treatment more than 30 cells per HPF, EoE threshold 15 counts per HPF): less than 5 per HPF
